One data set has as its system taste panel. The data set is described as follows: Sensory analysis of purified Brazzein (taste panel, sweetness threshold versus sucrose). It is filed as in vivo, humans. The settings on record: for Experimental Threshold: first sample sensed as sweet, 200 microliter applied to anterior tongue, 30 tasters; for Relative Sweetness (by weight): relative to sucrose, 1% (w/v) sucrose reference. The method, then:
A portion of the purified Brazzein (A28D) was lyophilized and re-dissolved in deionized water to 1.0 mg/mL. From this, Brazzein (A28D) solutions with following concentrations were made: 0.5, 1.0, 2.0, 3.0, 4.0, 5.0, 6.0, 7.0, 8.0, 9.0, and 10.0 μg/mL. A 1% (w/v) sucrose solution, the lowest concentration of sucrose detectable by humans, was used as a reference. The taste panel consisted of fifteen females and fifteen males with normal health and normal sense of taste. Two-hundred-microliter samples were applied to the anterior region of the tongue. After each test, the mouth was rinsed with tap water. The tasters sampled from the lower concentration samples to higher. Each taster chose the first sample that could be sensed for sweetness. Sweetness potencies were reported relative to sucrose on a weight basis.

A short description of data set [1]: Thermal stability of secreted Brazzein (heating of cell free supernatant, SDS-PAGE). Format: physicochemical. Conditions: cell free supernatant heated at 80° C. for 60 mins, centrifuged at 17,500 g, FIG. 11. The protocol:
Protein expression was analyzed by SDS-PAGE on 15% Tris-Glycine gels. To analyze protein in the cell culture medium, 17 μL of cell free supernatant (corresponding to 0.07% of total culture volume) was mixed with 17 μL of 2× reducing sample buffer, heated for 5 mins in a PCR machine, briefly spun and loaded into the gel. The gel was run at a constant voltage of 125V till the dye front exited the gel. The gels were washed in MILLI-Q® water for 1 hour and stained with Coomassie Stain. To analyze protein in whole cells, frozen cell pellets were thawed, re-suspended in 50 μL of MILLI-Q*water. 17 μL of resuspended cells were mixed with 17 μL of 2× Reducing Sample Buffer, heated for 5 mins in a PCR machine, briefly spun and loaded into the gel. The gel was run at constant voltage of 125V till the dye front exited it. The gels were washed in MILLI-Q*water for 1 hour and stained with Coomassie Stain.
[…] The supernatant was analyzed by SDS-PAGE. Protein quantitation was done using BCA assay kit. As a result of heating, most of the endogenous E. coli proteins present in the cell free supernatant precipitated, leaving >90% pure Brazzein in solution.

The conditions of data set [2]: cited from earlier work.

Like-named read-outs stand apart in the source and are kept apart here.

As to `OC[C@H]1O[C@@](CO)(O[C@H]2O[C@H](CO)[C@@H](O)[C@H](O)[C@H]2O)[C@@H](O)[C@@H]1O` [Sucrose, reference compound], in the data set with taste panel, the “Experimental Threshold” value was determined as 1 % [g/100 mL] and the “Relative Sweetness (by weight)” value came to 1.
Consider “Brazzein: high-potency thermostable sweet protein, originally isolated from the fruit of Pentadiplandra brazzeana Baillon (DKCKKVYENYPVSKCQLANQCNYDCKLDKHARSGECFYDEKRNLQCICDYCEY; Synthetic: Amino Acid Sequence of pelB-Brazzein(A28D))”, for which the “thermal stability: Brazzein in soluble supernatant after heating” value in data set [1] was “Presence of Brazzein in lanes 1 and 2”. Besides, the sweeter than sucrose in data set [2] (in comparison to 2% sucrose aqueous solution) was 2,500 times; in data set [2] (in comparison to 10% sucrose), 500 times.

B1: Brazzein(A28D): wild-type TypeIII Brazzein; residue 50 of pelB-Brazzein mutated from Alanine to Aspartate; mature protein from Seq Id No. 8 (protein)
chain: MKYLLPTAAAGLLLLAAQPAMADKCKKVYENYPVSKCQLANQCNYDCKLDKHARSGECFYDEKRNLQCICDYCEY
modifications: misc_feature 1..234 Synthetic: nucleotide Sequence encoding pelB conjugated to Brazzein(A28D)
Turning to B1, in the data set on taste panel, the “Experimental Threshold” value is 0.0006 % [g/100 mL] and the “Relative Sweetness (by weight)” value was 1660. In addition, in the data set with taste panel (relative to 1% (w/v) sucrose reference), the “sweeter than sucrose on a weight basis” value stood at 1660 times.

The values above are taken from patent publication US12606836B2, “Process for extracellular secretion of Brazzein” (MAGELLAN LIFE SCIENCES LTD., priority 2016, dated 2026).
